Test results published in US20230119479A1, “A HISTONE DEACETYLASE INHIBITOR HAVING A NITROGEN-CONTAINING AROMATIC HETEROCYCLYL GROUP” (SHIONOGI & CO., LTD., priority 2019, published 2023).
pIC50: −log10 of the molar value. Read-outs that look alike come from different tables or passages of the source.

Target: T1, HDAC2 Human recombinant C-terminal FLAG-tag (Homo sapiens, UniProt Q92769)
T1 construct: FLAG (C); purchased BPS Bioscience 50052
Assay: Measurement of HDAC2 enzyme inhibitory activity (HTRF)
Assay type: biochemical
Conditions: recombinant HDAC2, H3K9ac peptide
Description: Test Example 1: Measurement of HDAC2 Enzyme Inhibitory Activity
The HDAC2 enzyme inhibitory activity was measured by the method described in the following test example.
To each well of a 384-well plate (Corning, 4514), DMSO solution of the test compound was dispensed at 50 nL/well from a final concentration of 99 μM to 8 points (n=2) in the 3-fold dilution series using Echo555 (Beckman Coulter). 2.5 μl of 0.005 mg/mL recombinant enzyme HDAC2 (HDAC2 Human recombinant C-terminal FLAG-tag, BPS Bioscience, 50052) was added to each well, 2.5 μl of 0.6 μM H3K9ac peptide (Lys(Ac)9-Histone H3 (1-21)-GGK(Biotin), AnaSpec, 64361) was added, mixed, and reacted in a wet box at room temperature for 3 hours. 50 mM Tris HCL pH8.0, 137 mM sodium chloride, 2.7 mM potassium chloride, 1 mM magnesium chloride, 0.01% Tween20, and 0.1% BSA which were diluted with ultrapure water were used as a reaction buffer at this time. After the reaction, 5 μL of 10 μM SAHA (suberoylanilide hydroxamic acid) as a reaction terminator and the 5 μL of a mixture of 2.5 ng of H3K9me0 antibody (ActiveMotif, 61399) labeled in-house with europium cryptate (Cisbio, 65EUSABA) and 125 nM streptavidin-XL665 (Cisbio, 610SAXLA) as an HTRF (time-resolved fluorescence) reagent were added to each well, mixed, and allowed to stand in a wet box at room temperature for reaction. A detection buffer used at this time was 50 mM Tris HCL pH 8.0, 0.8 M potassium fluoride, and 0.1% BSA which were diluted with ultrapure water. After reacting for 2 hours or more, HTRF was measured using a multi-plate reader such as SpectraMax Paradigm (MOLECULAR DEVICE) or RUBYstar (BMG LABTECH). Ratio (665 nm/615-620 nm×10000) was calculated from the fluorescence values of two wavelengths, 615-620 nm and 665 nm, which were excited at 320-340 nm, and the energy transition was obtained.

[1] = 3 hours room temperature, read-out: HDAC2 IC50

T1 sequence (Q92769 whole entry): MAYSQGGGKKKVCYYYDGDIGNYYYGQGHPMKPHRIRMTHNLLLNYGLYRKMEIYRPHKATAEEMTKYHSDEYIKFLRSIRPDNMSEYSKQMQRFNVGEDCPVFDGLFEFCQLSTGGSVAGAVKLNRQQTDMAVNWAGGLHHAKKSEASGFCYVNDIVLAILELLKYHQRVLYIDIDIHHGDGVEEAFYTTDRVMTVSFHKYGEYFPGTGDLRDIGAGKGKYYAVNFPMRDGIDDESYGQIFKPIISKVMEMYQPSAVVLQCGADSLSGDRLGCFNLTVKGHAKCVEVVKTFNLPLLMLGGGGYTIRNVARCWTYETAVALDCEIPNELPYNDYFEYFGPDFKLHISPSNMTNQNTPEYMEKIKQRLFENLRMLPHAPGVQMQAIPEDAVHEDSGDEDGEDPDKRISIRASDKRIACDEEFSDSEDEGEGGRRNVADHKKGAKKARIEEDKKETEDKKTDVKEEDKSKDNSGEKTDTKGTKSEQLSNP

Row | Compound | pIC50 [1] | pIC50 (read-out: IC50 (HDAC2))
1 | CCC(=O)Nc1ccc(C(=O)Nc2cc(-c3cnn(C)c3)ccc2N)nc1 [Compound I-307] |  | 7.11
2 | CS(=O)(=O)Nc1cnc(C(=O)Nc2cc(-c3ccc(F)nc3)ccc2N)cn1 [Compound I-311] |  | 6.82
3 | Nc1ccc(-c2ccc(F)nc2)cc1NC(=O)c1cnc(C(F)F)cn1 [Compound I-145] | 6.47 | 
4 | CCOc1ccc(C(=O)Nc2cc(-c3cnn(C)c3)ccc2N)nc1 [Compound I-165] | 6.70 | 
5 | CN(C)c1cnc(C(=O)Nc2nc(-n3cccc3)ccc2N)cn1 [Compound I-212] | 6.08 | 
6 | CC(=O)N(C)c1cnc(C(=O)Nc2cc(-c3cnn(C)c3)ccc2N)cn1 [Compound I-244] | 6.33 | 
7 | COCCOc1cnc(C(=O)Nc2cc(-c3cnn(C)c3)ccc2N)cn1 [Compound I-230] | 6.60 | 
8 | CC(C)(C)c1ccc(C(=O)Nc2cc(-c3ccc(F)nc3)ccc2N)nc1 [Compound I-191] | 6.62 | 
9 | Cn1cc(-c2ccc(C(=O)Nc3nc(-c4cccs4)ccc3N)nc2)nn1 [Compound I-034] | 6.55 | 
10 | CCC(=O)Nc1ccc(C(=O)Nc2nc(-c3ccccc3)ccc2N)nc1 [Compound I-308] |  | 6.55
11 | Cc1cnc(C(=O)Nc2cc(-c3cnn(C)c3)ccc2N)cn1 [Compound I-138] | 6.70 | 
12 | CCCCc1ccc(C(=O)Nc2cc(-c3cncs3)ccc2N)nc1 [Compound I-057] | 6.49 | 
13 | Nc1ccc(-c2ccccc2)nc1NC(=O)c1ccc2c(n1)OCC(=O)N2 [Compound I-233] | 6.55 | 
14 | COc1ccc(C(=O)Nc2cc(-c3ccc(F)nc3)ccc2N)nn1 [Compound I-253] | 6.82 | 
15 | Nc1ccc(-c2cncs2)cc1NC(=O)c1ccc2nccn2n1 [Compound I-065] | 6.48 | 
16 | Cn1cc(-c2ccc(N)c(NC(=O)c3ccc(Cl)nn3)c2)cn1 [Compound I-270] | 6.01 | 
17 | COc1ccnc(C(=O)Nc2cc(-c3ccc(F)nc3)ccc2N)c1 [Compound I-150] | 6.51 | 
18 | Nc1ccc(-c2cncs2)cc1NC(=O)c1ccc2[nH]ccc2n1 [Compound I-081] | 6.55 | 

Row | Compound | pIC50 [1] | pIC50 (read-out: IC50 (HDAC2))
19 | CC(C)Nc1cnc(C(=O)Nc2cc(-n3ccc(F)c3)ccc2N)cn1 [Compound I-301] | 6.51 | 
20 | Nc1ccc(-c2ccc(F)nc2)cc1NC(=O)c1ccc(Cl)cn1 [Compound I-090] | 6.54 | 
21 | CC(C)Nc1ccc(C(=O)Nc2cc(-c3ccc(F)nc3)ccc2N)nn1 [Compound I-273] | 6.64 | 
22 | Cn1cc(-c2ccc(C(=O)Nc3cc(-c4ccco4)ccc3N)nc2)cn1 [Compound I-005] | 6.66 | 
23 | Cn1cc(-c2cnc(C(=O)Nc3nc(-c4ccco4)ccc3N)cn2)cn1 [Compound I-026] | 6.49 | 
24 | Cn1cc(-c2ccc(N)c(NC(=O)c3ccc(N4CCCC4)nn3)c2)cn1 [Compound I-272] | 6.64 | 
25 | Cn1cc(-c2ccc(N)c(NC(=O)c3cc4c(cn3)OCCC4)c2)cn1 [Compound I-255] | 6.39 | 
26 | CN(C)c1ccc(C(=O)Nc2nc(-n3cccc3)ccc2N)nc1 [Compound I-226] | 6.35 | 
27 | CN(C)c1cnc(C(=O)Nc2nc(-c3ccc(F)nc3)ccc2N)cn1 [Compound I-247] | 6.42 | 
28 | Cn1cc(-c2cnc(C(=O)Nc3cc(-c4cccs4)ccc3N)c(F)c2)cn1 [Compound I-016] | 6.80 | 
29 | Cn1cc(-c2ccc(N)c(NC(=O)c3cnc(C(C)(C)C)cn3)c2)cn1 [Compound I-204] | 6.47 | 
30 | Nc1ccc(-c2ccc(F)nc2)cc1NC(=O)c1cc(F)ccn1 [Compound I-186] | 6.31 | 
31 | Cc1ccc(C(=O)Nc2cc(-c3ccc(F)nc3)ccc2N)nc1F [Compound I-210] | 6.72 | 
32 | Cc1ncc(-c2ccc(N)c(NC(=O)c3ccc(-c4cnn(C)c4)cn3)c2)s1 [Compound I-032] | 6.85 | 
33 | Cn1cccc1-c1cc(C(=O)Nc2cc(-c3cncs3)ccc2N)no1 [Compound I-199] | 6.70 | 
34 | Nc1ccc(-c2ccc(F)nc2)cc1NC(=O)c1cnc(OCC(F)F)cn1 [Compound I-151] | 6.66 | 
35 | COCCOc1cnc(C(=O)Nc2nc(-c3ccccc3)ccc2N)cn1 [Compound I-231] | 6.07 | 

Further compounds by rising pIC50 [1], results first:

Row | pIC50 [1] | pIC50 (read-out: IC50 (HDAC2)) | Compound
36 | 6.85 |  | Nc1ccc(-c2ccc(F)nc2)cc1NC(=O)c1cc2ccncc2cn1 [Compound I-068]
37 | 6.85 |  | COC(=O)c1ccc(C(=O)Nc2cc(-c3ccc(F)nc3)ccc2N)nc1 [Compound I-185]
38 | 6.85 |  | Cn1cc(-c2ccc(N)c(NC(=O)c3cnc(N4CCCC4)cn3)c2)cn1 [Compound I-241]
39 | 6.89 |  | Cn1cc(-c2ccc(C(=O)Nc3cc(-c4cccs4)ccc3N)nn2)cn1 [Compound I-027]
40 | 6.89 |  | COCCOc1cnc(C(=O)Nc2cc(-c3ccc(F)nc3)ccc2N)cn1 [Compound I-229]
41 | 6.92 |  | Nc1ccc(-c2cncs2)cc1NC(=O)c1cc2c(cn1)OCCC2 [Compound I-067]
42 | 6.96 |  | Cn1cc(-c2ccc(N)c(NC(=O)c3cnc(NC4CCOCC4)cn3)c2)cn1 [Compound I-290]
43 | 7.00 |  | Nc1ccc(-c2ccc(F)nc2)cc1NC(=O)c1cnc(N2CC(Cl)(CCO)C2)cn1 [Compound I-224]
44 | 7.00 |  | Nc1ccc(-n2ccc(F)c2)cc1NC(=O)c1cnc(N2CCOCC2)cn1 [Compound I-267]
45 | 7.00 |  | Nc1ccc(-c2ccc(F)nc2)cc1NC(=O)c1ccc(N2CCOCC2)nn1 [Compound I-262]
46 | 7.00 |  | Cn1cc(-c2ccc(N)c(NC(=O)c3ccc4c(n3)OCO4)c2)cn1 [Compound I-216]
47 | 7.03 |  | Cn1cc(-c2cnc(C(=O)Nc3cc(-c4cnco4)ccc3N)cn2)nn1 [Compound I-012]
48 | 7.05 |  | CC(=O)Nc1ccc(C(=O)Nc2cc(-c3cnn(C)c3)ccc2N)nc1 [Compound I-265]
49 | 7.10 |  | Nc1ccc(-c2ccc(F)nc2)cc1NC(=O)c1cnc(N2CC(CO)(CCl)C2)cn1 [Compound I-222]
50 | 7.10 |  | CN(Cc1ccccn1)c1cnc(C(=O)Nc2cc(-c3cnn(C)c3)ccc2N)cn1 [Compound I-295]
51 | 7.10 |  | Nc1ccc(-c2ccc(F)nc2)cc1NC(=O)c1cnc(N2CCCC2)cn1 [Compound I-240]
52 | 7.15 |  | Nc1ccc(-c2ccc(F)nc2)cc1NC(=O)c1cnc(N2CC3(COC3)C2)cn1 [Compound I-245]
53 | 7.15 |  | Cn1cc(-c2ccc(N)c(NC(=O)c3cnc(N4CCCOCC4)cn3)c2)cn1 [Compound I-296]
54 | 7.15 |  | Cn1cc(-c2ccc(N)c(NC(=O)c3cnc(NCc4ccccn4)cn3)c2)cn1 [Compound I-294]
55 | 7.15 |  | Nc1ccc(-n2ccc(F)c2)cc1NC(=O)c1cnc(N2CCC2)cn1 [Compound I-300]
56 | 7.22 |  | CN(C)c1cnc(C(=O)Nc2cc(-c3cnco3)ccc2N)cn1 [Compound I-202]
57 | 7.30 |  | Nc1ccc(-c2ccc(F)nc2)cc1NC(=O)c1cnc(N2Cc3cccnc3C2)cn1 [Compound I-279]
58 | 7.30 |  | Nc1ccc(-c2ccc(F)nc2)cc1NC(=O)c1cnc(N2CCC2)cn1 [Compound I-221]
59 | 7.30 |  | CCN(C)c1cnc(C(=O)Nc2cc(-c3ccc(F)nc3)ccc2N)cn1 [Compound I-220]
60 | 7.31 |  | Nc1ccc(-c2ccc(F)nc2)cc1NC(=O)c1ccc2c(n1)OCC(=O)N2 [Compound I-184]
61 | 7.33 |  | Nc1ccc(-c2cncs2)cc1NC(=O)c1cc2ccncc2cn1 [Compound I-060]
62 | 7.34 |  | CN(C)c1cnc(C(=O)Nc2cc(-c3ccc(F)nc3)ccc2N)cn1 [Compound I-178]
63 | 7.40 |  | CC(C)Nc1cnc(C(=O)Nc2cc(-c3ccc(F)nc3)ccc2N)cn1 [Compound I-242]
